Measurements published in patent US20110091574A1, “TREATMENT OF ADENOCARCINOMA EXPRESSING LKB1 WITH MTOR INHIBITOR IN COMBINATION WITH COX2 INHIBITOR” (Catholic Healthcare West, priority 2008, published 2011).

Columns and labels:
[1] = tested on: H23-LKB1 cells; test: Immunoblot of cleaved PARP; assay type: cell-based, human; conditions: H23 re-expressing LKB1; 20 mM 2-DG, 24 hours
Description: (§1) FIG. 4 (in panels A through F) illustrates in graphs and immunoblots that 2-DG induces apoptosis in LKB1 null NSCLC cells. […] Bars represent standard error and the studies were repeated twice. FIG. 4B is an immunoblot of cleaved PARP. H23 and H2009 cells were treated for 24 hours with 20 mM of 2-DG. […] GAPDH was used as a loading control. FIG. 4C is an immunoblot of LKB1 and KDLKB1 in H23 cells after retroviral infection and puromycin selection. GAPDH was used as a loading control. FIG. 4D is an immunoblot that illustrates 2-DG activation of LKB1 in H23-LKB1, but not H23-KDLKB1 cells. The blot was stripped and probed for AMPK as a loading control. The blot represents two independent studies. FIG. 4E is a graph that illustrates that LKB1, but not KDLKB1 prevents activation of caspase 3 and 7 in H23 cells. H23-LKB1 and H23-KDLKB1 cells were treated for 24 hours with 20 mM 2-DG before analysis as described hereinafter. Bars represent standard error, and the study was repeated twice. FIG. 4F is an immunoblot of cleaved PARP in H23-LKB1 and H23-KDLKB1 after treatment with 20 mM of 2-DG for 24 hours. Blot is representative of two independent studies. GAPDH was used as a loading control. […]
(§2) Cells were incubated on ice for 30 minutes with a lysis buffer containing 10 mM Tris-HCL, 150 mM NaCl and 1% IGEPAL (Sigma). […] Protein concentration was determined using the Bio-Rad DC protein kit. […]

[2] = tested on: H23-LKB1 cells; test: Caspase 3/7 activity (Caspase-Glo 3/7); assay type: cell-based, human; conditions: H23 re-expressing LKB1; 20 mM 2-DG, 24 hours
Description: as §1, with “hours.” for “hours. Blot is representative of two independent studies. GAPDH was used as a loading control.”
(§3) Cell lines were plated at a density of 5000 cells per well in 96 well plates. […] Activity of caspases 3 and 7 were determined using a Caspase-Glo® 3/7 kit (Promega) according to manufacturer's instructions and scanned using a Beckman Coulter DTX 880 plate reader. […]

[3] = tested on: mTOR in LKB1 null cells; test: mTOR activation in cells treated with 2-DG; assay type: cell-based; conditions: LKB1 null cells treated with 2-DG
[4] = tested on: H23 cells; test: Immunoblot of cleaved PARP; assay type: cell-based, human; conditions: 20 mM 2-DG, 24 hours
Description: as §1, §2

[5] = tested on: LKB1 null NSCLC cells (H23, H2122); test: Cell viability after 2-DG (CellTiter Blue); assay type: cell-based, human; conditions: 48 hours
Description: (§4) FIG. 3 (in three panels, A, B and C) illustrates the effect of 2-deoxyglucose (2-DG) in LKB1 null and LKB1 expressing NSCLC cells. FIG. 3A is an immunoblot of LKB1 in H23, H2122, H2009 and H441 NSCLC cell lines. GAPDH was used as a loading control. FIG. 3B illustrates an immunoblot showing the induction of AMPK phosphorylation by 2-DG. LKB1 positive (H2009, H441) and LKB1 negative (H23, H2122) cell lines were treated with 20 mM of 2-DG for 1 hour. Protein lysates were immunoblotted with an antibody specific to phosphorylated Thr172 AMPK. It is noted that 2-DG induces phosphorylation at Thr172 only in LKB1 expressing cells. Both AMPK and GAPDH were used as loading controls. The blot is representative of two independent experiments. C-LKB1 null NSCLC cell are more sensitive to 2-DG. […] NSCLC cell lines were treated for 48 hours with indicated concentrations of 2-DG. Bars represent standard error.
(§5) Because LKB1-AMPK signaling can affect cell growth or cell number, the number of viable LKB1 null and LKB1 positive cells were compared after treatment with 2-DG for a range of concentrations, over time.
(§6) LKB1 negative (H23, H2122) and positive (H2009, H441) NSCLC cell lines were treated with decreasing doses of 2-deoxyglucose (2-DG) for 72 hours. Cell viability, markers of apoptosis (e.g. PARP, Caspases), and gene expression profiles were evaluated from treated versus untreated samples.
(§7) Cell lines were plated at a density of 2500 cells per well in 96 well plates. After attachment, 2-DG was diluted in media at indicated concentrations and added to wells. Treatment was carried out for 48 hours in standard cell culture conditions, before cell viability was assessed using the CellTiter® Blue kit (Promega) according to manufacturer's instructions and read on a Beckman Coulter DTX 880. The percentage of viable cells was determined by normalizing treated samples to vehicle (PBS).

[6] = tested on: LKB1 positive NSCLC cells (H2009, H441); test: Cell viability after 2-DG (CellTiter Blue); assay type: cell-based, human; conditions: 20 mM 2-DG, 48 hours
Description: as §4, §5, §6, §7

[7] = tested on: LKB1 positive lines (H2009); test: Microarray gene expression profiling of 2-DG-treated cells; assay type: cell-based, human
Description: (§8) To test this hypothesis, apoptosis-related transcripts of H23 (LKB1 null) and H2009 (LKB1 positive) cells were compared by treatment with either low (2.5 mM) or high dose (20 mM) 2-DG or vehicle (PBS) for 6 hours followed by microarray-based assessment of gene expression. […] LKB1 negative (H23, H2122) and positive (H2009, H441) NSCLC cell lines were treated with decreasing doses of 2-deoxyglucose (2-DG) for 72 hours. Cell viability, markers of apoptosis (e.g. PARP, Caspases), and gene expression profiles were evaluated from treated versus untreated samples. Total RNA was extracted from cells using TRIzol (Invitrogen) followed by RNeasy Mini Kit purification (Qiagen) according to manufacturers specifications. Spectrophotometric analysis was performed on a NanoDrop ND-1000 (Thermo Scientific) and RNA quality was assessed on a BioAnalyzer 2100 (Agilent) using strict RNA integrity QC cutoffs. 500 ng of RNA was labeled and hybridized (in duplicate) to Agilent 4×44K Whole Human Genome One-Color Oligo Microarrays according to manufacturer specifications. Slides were scanned using the Agilent Microarray Scanner (model […]) and processed with Agilent's Feature Extraction software (v. 9.5.1). Comparative and statistical analyses for gene expression profiles, were carried out using GeneSpring 7.3. Apoptosis-related genes of interest were identified by key word search (“apoptosis”) followed by unsupervised hierarchical clustering. Significance values were determined by comparing expression of all LKB1+ samples (grouped) to all LKB1- samples (grouped) for each gene using the Student's t-test and a p<0.05 cutoff after multiple testing correction using the false discovery rate (FDR) method.

[8] = tested on: LKB1 negative cell lines (H23); test: as above; assay type: cell-based, human
Description: as §8

[9] = tested on: AMPK phosphorylation in H2009, H441, H23, H2122 NSCLC cell lines; test: Immunoblot of AMPK Thr172 phosphorylation after 2-DG; assay type: cell-based, human; conditions: 20 mM 2-DG, 1 hour; LKB1 positive H2009, H441 vs LKB1 negative H23, H2122
Description: as §4
To investigate the role of LKB1 in the effectiveness of 2-DG treatment, four NSCLC cell lines (H23, H2122, H441, H2009) were screened by immunoblot for LKB1 expression (FIG. 3A).
as §2

[10] = tested on: H23 cells; test: Caspase 3/7 activity (Caspase-Glo 3/7); assay type: cell-based, human; conditions: H23 (LKB1 null); increasing doses of 2-DG, 24 hours
Description: as §1, with “hours.” for “hours. Blot is representative of two independent studies. GAPDH was used as a loading control.”
as §3

[11] = tested on: H23-LKB1 cells; test: Immunoblot of AMPK phosphorylation after 2-DG; assay type: cell-based, human; conditions: H23-LKB1 cells treated with 2-DG
Description: as §1, §2

[12] = tested on: H23-KDLKB1 cells; test: Immunoblot of AMPK phosphorylation after 2-DG; assay type: cell-based, human; conditions: H23-KDLKB1 cells treated with 2-DG
Description: as §1, §2

[13] = tested on: COX-2 and COX-1 enzymes; conditions: cited from earlier work; for inhibition of COX-2 relative to COX-1: in vitro
[14] = human, single oral dose of 200 mg; cited from earlier work
[15] = cited from earlier work

O=CC[C@@H](O)[C@H](O)[C@H](O)CO [2-DG, 2-deoxyglucose]
cleavage of PARP [1]: prevented cleavage of PARP
2-DG induced activation of caspase 3 and 7 [2]: prevented 2-DG induced activation of caspase 3 and 7
mTOR activation [3]: increased mTOR activation
cleaved PARP (marker of apoptosis) [4]: present
cell viability ([5]; LKB1 negative cells, 20 mM 2-DG): significant decrease in cell viability
cell viability compared to LKB1 positive cells ([5]; LKB1 null cells, all doses, lowest 2.5 mM, p=5.73×10^−13): significant decrease in cell viability for all doses tested
cell viability [6]: significant decrease in cell viability
expression of pro-apoptotic markers [7]: no changes in expression
expression of BCL-2 and BCL-2 interacting proteins ([8]; H23 (LKB1 null), 2.5 mM or 20 mM 2-DG, 6 hours, microarray): dose dependent changes
expression of pro-apoptotic markers ([8]; LKB1 negative cell lines, 2-DG-treated): increase in the expression of pro-apoptotic markers
activation of AMPK (phosphorylation at Thr172) [9]: induced LKB1 dependent activation of AMPK
activation of caspases 3 and 7 [10]: dose dependent activation of caspases 3 and 7
phosphorylation of AMPK [11]: capable of phosphorylating AMPK
phosphorylation of AMPK [12]: does not

CC(=O)Oc1ccccc1C(=O)O [aspirin]
inhibition of COX-2 relative to COX-1 [13]: about equipotent

Cc1ccc(-c2cc(C(F)(F)F)nn2-c2ccc(S(N)(=O)=O)cc2)cc1 [celecoxib]
Cmax [14]: 709 ng/mL
cardiovascular side effects ([15]; long-term use at 400 mg once daily, or 200 mg or 400 mg twice daily): severe cardiovascular side effects

Cc1ccc(-c2ncc(Cl)cc2-c2ccc(S(C)(=O)=O)cc2)cn1 [etoricoxib]
relative degree of selectivity for COX-2 over COX-1 (rank order) [13]: lumiracoxib=etoricoxib>valdecoxib=rofecoxib>>celecoxib

CC(C)Cc1ccc(C(C)C(=O)O)cc1 (stereo not shown) [ibuprofen]
inhibition of COX-2 relative to COX-1 [13]: sevenfold

Cc1ccc(Nc2c(F)cccc2Cl)c(CC(=O)O)c1 [lumiracoxib]
relative degree of selectivity for COX-2 over COX-1 (rank order) [13]: lumiracoxib=etoricoxib>valdecoxib=rofecoxib>>celecoxib

CS(=O)(=O)c1ccc(C2=C(c3ccccc3)C(=O)OC2)cc1 [rofecoxib]
potency at inhibiting COX-2 relative to COX-1 [13]: about 300 times
increased risk of cardiovascular toxicities ([15]; trial to prevent adenomas): two-fold
